Test system: PBMC (T cell proliferation)
Assay: T cell proliferation assay, PHA-stimulated human PBMC (BrdU ELISA)
Type: cell-based
Conditions: PHA-stimulated human PBMC, 48 hours, BrdU; column D; activity classes 1-4; read-out: IC50 (Tcell proliferation)
Procedure, shortened: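 Healthy-donor human PBMC, Ficoll-isolated, seeded 1×10^5 cells/well in RPMI1640 with 10% dialyzed FCS, stimulated with 2 μg/ml PHA alongside test compound. Proliferation read after 48 hours by BrdU ELISA.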

`Fc1ccccc1-n1ncc(-c2onc(-c3c(F)cccc3Cl)c2-c2cnco2)c1C(F)(F)F` [IB-28, 3-(2-chloro-6-fluorophenyl)-5-(1-(2-fluorophenyl)-5-(trifluoromethyl)-1H-pyrazol-4-yl)-4-(oxazol-5-yl)isoxazole] was tested. Which IC50 did it give?
The IC50 was 100 to 1000 nM.

Which IC50 does the source give for `Fc1ccccc1-n1ncc(-c2onc(-c3c(F)cccc3Cl)c2-c2ccoc2)c1C(F)(F)F` [IB-9, 3-(2-chloro-6-fluorophenyl)-5-(1-(2-fluorophenyl)-5-(trifluoromethyl)-1H-pyrazol-4-yl)-4-(furan-3-yl)isoxazole] here?
Its IC50 is 100 to 1000 nM.

With `COC(=O)c1csc(-c2c(-c3c(F)cccc3Cl)noc2-c2cnn(-c3cccc(F)c3)c2C(F)(F)F)n1` [IB-2, methyl 2-{3-(2-chloro-6-fluorophenyl)-5-[1-(3-fluorophenyl)-5-(trifluoromethyl)-1H-pyrazol-4-yl]isoxazol-4-yl}-1,3-thiazole-4-carboxylate] as the compound, how does the IC50 read?
The IC50 was 100 to 1000 nM.

Same assay, conditions: human PBMC, 2 μg/ml PHA, 48 hours, BrdU; read-out: D: IC50 (Tcell proliferation)

How did the IC50 turn out when `COC(=O)c1c(-c2ccccc2)noc1-c1cnn(-c2cccc(F)c2)c1C(F)(F)F` [Example 51, methyl 5-(1-(3-fluorophenyl)-5-(trifluoromethyl)-1H-pyrazol-4-yl)-3-phenylisoxazole-4-carboxylate] was run?
The IC50 was 1000 to 10000 nM.

`COC(=O)c1c(-c2c(F)cccc2Cl)noc1-c1cnn(-c2ncc(C(F)(F)F)cc2Cl)c1C(F)(F)F` [Example 87] was tested. Which IC50 did it give?
Its IC50 is 1000 to 10000 nM.

Which IC50 does the source give for `CC(C)OC(=O)c1c(-c2c(F)cccc2Cl)noc1-c1cnn(-c2ccncc2)c1C(F)(F)F` [Example B-82, isopropyl 3-(2-chloro-6-fluorophenyl)-5-(1-(pyridin-4-yl)-5-(trifluoromethyl)-1H-pyrazol-4-yl)isoxazole-4-carboxylate] here?
The IC50 was 10 to 100 nM.

Which IC50 does the source give for `COC(=O)c1c(-c2c(F)cccc2Cl)noc1-c1cnn(-c2cc(Cl)cc(Cl)c2)c1C(F)(F)F` [Example 68, methyl 3-(2-chloro-6-fluorophenyl)-5-(1-(3,5-dichlorophenyl)-5-(trifluoromethyl)-1H-pyrazol-4-yl)isoxazole-4-carboxylate] here?
Its IC50 is 10 to 100 nM.

Which IC50 does the source give for `NNC(=O)c1c(-c2cccc(F)c2)noc1-c1cnn(-c2cccc(F)c2)c1C(F)(F)F` [Example 134, 3-(3-fluorophenyl)-5-(1-(3-fluorophenyl)-5-(trifluoromethyl)-1H-pyrazol-4-yl)isoxazole-4-carbohydrazide] here?
The IC50 was 1000 to 10000 nM.

With `COC(=O)c1c(-c2c(F)cccc2Cl)noc1-c1cnn(-c2ccc(C(C)(C)C)cc2)c1C(F)(F)F` [Example 81, methyl 5-(1-(4-tert-butylphenyl)-5-(trifluoromethyl)-1H-pyrazol-4-yl)-3-(2-chloro-6-fluorophenyl)isoxazole-4-carboxylate] as the compound, how does the IC50 read?
The IC50 was 1000 to 10000 nM.

Which IC50 does the source give for `Fc1cc(F)cc(-n2ncc(-c3onc(-c4c(F)cccc4Cl)c3Br)c2C(F)(F)F)c1` [Example B-27, 4-bromo-3-(2-chloro-6-fluorophenyl)-5-(1-(3,5-difluorophenyl)-5-(trifluoromethyl)-1H-pyrazol-4-yl)isoxazole] here?
Its IC50 is 100 to 1000 nM.

How did the IC50 turn out when `CNC(=O)c1c(-c2ccccc2Cl)noc1-c1cnn(-c2cccc(Cl)c2)c1C(F)(F)F` [Example B-63, 3-(2-chlorophenyl)-5-(1-(3-chlorophenyl)-5-(trifluoromethyl)-1H-pyrazol-4-yl)-N-methylisoxazole-4-carboxamide] was run?
Its IC50 is 100 to 1000 nM.

`COC(=O)c1c(-c2c(F)cccc2Cl)noc1-c1cnn(-c2nc(-c3ccc(F)cc3)cs2)c1C(F)(F)F` [Example 54, methyl 3-(2-chloro-6-fluorophenyl)-5-(1-(4-(4-fluorophenyl)thiazol-2-yl)-5-(trifluoromethyl)-1H-pyrazol-4-yl)isoxazole-4-carboxylate] was tested. Which IC50 did it give?
The IC50 was 1000 to 10000 nM.

`O=C(c1c(-c2ccccc2Cl)noc1-c1cnn(-c2cccc(Cl)c2)c1C(F)(F)F)N1CCCO1` [Example B-62, (3-(2-chlorophenyl)-5-(1-(3-chlorophenyl)-5-(trifluoromethyl)-1H-pyrazol-4-yl)isoxazol-4-yl)(isoxazolidin-2-yl)methanone] was tested. Which IC50 did it give?
The IC50 was 10 to 100 nM.

Which IC50 does the source give for `CNC(=S)c1c(-c2c(F)cccc2Cl)noc1-c1cnn(-c2cccc(F)c2)c1C(F)(F)F` [Example 122, 3-(2-chloro-6-fluorophenyl)-5-(1-(3-fluorophenyl)-5-(trifluoromethyl)-1H-pyrazol-4-yl)-N-methylisoxazole-4-carbothioamide] here?
The IC50 was 100 to 1000 nM.

Which IC50 does the source give for `CCOC(=O)c1c(-c2c(Cl)cncc2Cl)noc1-c1cnn(-c2ccccc2Cl)c1C(F)(F)F` [Example B-16, ethyl 5-(1-(2-chlorophenyl)-5-(trifluoromethyl)-1H-pyrazol-4-yl)-3-(3,5-dichloropyridin-4-yl)isoxazole-4-carboxylate] here?
The IC50 was 1000 to 10000 nM.

Which IC50 does the source give for `COC(=O)c1c(-c2c(F)cccc2Cl)noc1-c1cnn(-c2cccc(Cl)c2)c1` [Example 115, methyl 3-(2-chloro-6-fluorophenyl)-5-(1-(3-chlorophenyl)-1H-pyrazol-4-yl)isoxazole-4-carboxylate] here?
Its IC50 is 1000 to 10000 nM.

With `CCOC(=O)c1c(-c2c(F)cccc2Cl)noc1-c1cnn(-c2cccc(C(N)=O)c2)c1C(F)(F)F` [Example B-100, ethyl 5-(1-(3-carbamoylphenyl)-5-(trifluoromethyl)-1H-pyrazol-4-yl)-3-(2-chloro-6-fluorophenyl)isoxazole-4-carboxylate] as the compound, how does the IC50 read?
Its IC50 is 1000 to 10000 nM.

For `O=C(NCc1ccccc1C(F)(F)F)c1c(-c2c(F)cccc2Cl)noc1-c1cnn(-c2ccccc2F)c1C(F)(F)F` [Example 23, 3-(2-chloro-6-fluorophenyl)-5-(1-(2-fluorophenyl)-5-(trifluoromethyl)-1H-pyrazol-4-yl)-N-(2-(trifluoromethyl)benzyl)isoxazole-4-carboxamide], which IC50 is on record?
Its IC50 is 1000 to 10000 nM.

Which IC50 does the source give for `COC(=O)c1c(-c2c(F)cccc2Cl)noc1-c1cnn(C2CCS(=O)(=O)C2)c1C(F)(F)F` (stereo not drawn) [Example 103, methyl 3-(2-chloro-6-fluorophenyl)-5-(1-(3-hydrazinyltetrahydrothiophene 1,1-dioxide)-5-(trifluoromethyl)-1H-pyrazol-4-yl)isoxazole-4-carboxylate] here?
The IC50 was 100 to 1000 nM.

`COC(=O)c1c(-c2c(F)cccc2Cl)noc1-c1cnn(-c2cc(F)cc(F)c2)c1C(F)(F)F` [Example 50, methyl 3-(2-chloro-6-fluorophenyl)-5-(1-(3,5-difluorophenyl)-5-(trifluoromethyl)-1H-pyrazol-4-yl)isoxazole-4-carboxylate] was tested. Which IC50 did it give?
Its IC50 is less than 10 nM.

How did the IC50 turn out when `CON(C)C(=O)c1c(-c2ccccc2Cl)noc1-c1cnn(-c2cccc(Cl)c2)c1C(F)(F)F` [Example B-64, 3-(2-chlorophenyl)-5-(1-(3-chlorophenyl)-5-(trifluoromethyl)-1H-pyrazol-4-yl)-N-methoxy-N-methylisoxazole-4-carboxamide] was run?
The IC50 was 100 to 1000 nM.

Which IC50 does the source give for `COC(=O)c1c(-c2c(F)cccc2Cl)noc1-c1cnn(-c2ccccn2)c1C(F)(F)F` [Example 84, methyl 3-(2-chloro-6-fluorophenyl)-5-(1-(pyridin-2-yl)-5-(trifluoromethyl)-1H-pyrazol-4-yl)isoxazole-4-carboxylate] here?
The IC50 was less than 10 nM.

`Fc1cccc(Cl)c1-c1noc(-c2cnn(-c3ccncc3)c2C(F)(F)F)c1Br` [Example B-83, 4-bromo-3-(2-chloro-6-fluorophenyl)-5-(1-(pyridin-4-yl)-5-(trifluoromethyl)-1H-pyrazol-4-yl)isoxazole] was tested. Which IC50 did it give?
The IC50 was 1000 to 10000 nM.

Which IC50 does the source give for `CON(C)C(=O)c1c(-c2c(F)cccc2Cl)noc1-c1cnn(-c2ccncc2)c1C(F)(F)F` [Example B-59, 3-(2-chloro-6-fluorophenyl)-N-methoxy-N-methyl-5-(1-(pyridin-4-yl)-5-(trifluoromethyl)-1H-pyrazol-4-yl)isoxazole-4-carboxamide] here?
The IC50 was 1000 to 10000 nM.

Source: patent publication US8592456B2 (4SC Discovery GmbH, priority 2011, dated 2013)
